The values below come from publication PMC5218480 (PLoS ONE, 2017).

This test relates to MV-4-11 cells. The test is described as follows: Gene expression microarray analysis (Affymetrix PrimeView) and GSEA. Type of test: cell-based, human. Set-up: RFU PODN (11730768_x_at) / Fold change /veh PODN (11730768_x_at) / RFU LINC00158 (11744669_a_at) / Fold change /veh LINC00158 (11744669_a_at) / RFU DUSP10 (11751237_a_at) / Fold change /veh DUSP10 (11751237_a_at) / RFU ID3 (11757404_x_at) / Fold change /veh ID3 (11757404_x_at) / RFU PLEKHG5 (11737974_s_at) / Fold change /veh PLEKHG5 (11737974_s_at) / RFU LRRC4B (11730491_at) / Fold change /veh LRRC4B (11730491_at) / RFU GIMAP4 (11747438_a_at) / Fold change /veh GIMAP4 (11747438_a_at) / RFU KRT8 (11758183_x_at) / Fold change /veh KRT8 (11758183_x_at) / RFU CNN1 (11734310_a_at) / Fold change /veh CNN1 (11734310_a_at) / RFU VPS37D (11726825_at) / Fold change /veh VPS37D (11726825_at) / RFU C10orf10 (11716522_x_at) / Fold change /veh C10orf10 (11716522_x_at) / RFU KIR2DL2 /// KIR2DL4 /// KIR2DL5A /// KIR2DL5B /// KIR2DS1 /// KIR2DS2 /// KIR2DS3 /// KIR2DS4 /// KIR3DL3 /// KIR3DL3 /// KIR3DS1 (11738374_at) / Fold change /veh KIR2DL2 /// KIR2DL4 /// KIR2DL5A /// KIR2DL5B /// KIR2DS1 /// KIR2DS2 /// KIR2DS3 /// KIR2DS4 /// KIR3DL3 /// KIR3DL3 /// KIR3DS1 (11738374_at) / RFU C1QL1 (11718748_at) / Fold change /veh C1QL1 (11718748_at) / RFU TMPRSS4 (11747572_a_at) / Fold change /veh TMPRSS4 (11747572_a_at) / RFU HAMP (11756126_x_at) / Fold change /veh HAMP (11756126_x_at) / RFU RNFT2 (11725882_a_at) / Fold change /veh RNFT2 (11725882_a_at) / RFU NR4A2 (11747474_a_at) / Fold change /veh NR4A2 (11747474_a_at) / RFU ABCC12 (11746883_a_at) / Fold change /veh ABCC12 (11746883_a_at) / RFU TMEM136 (11760407_x_at) / Fold change /veh TMEM136 (11760407_x_at) / RFU CLDN22 /// WWC2 (11732394_at) / Fold change /veh CLDN22 /// WWC2 (11732394_at) / RFU HLA-DPB1 (11760878_x_at) / Fold change /veh HLA-DPB1 (11760878_x_at) / RFU SPINT1 (11716480_a_at) / Fold change /veh SPINT1 (11716480_a_at) / RFU GAP43 (11754022_s_at) / Fold change /veh GAP43 (11754022_s_at) / RFU A4GNT (11735810_at) / Fold change /veh A4GNT (11735810_at) / RFU PRB3 (11715151_x_at) / Fold change /veh PRB3 (11715151_x_at) / RFU TUBB4B (11761932_at) / Fold change /veh TUBB4B (11761932_at) / RFU CAPN14 (11732068_a_at) / Fold change /veh CAPN14 (11732068_a_at) / RFU TMCC2 (11721928_a_at) / Fold change /veh TMCC2 (11721928_a_at) / RFU IRGQ (11745062_a_at) / Fold change /veh IRGQ (11745062_a_at) / RFU FAM174B (11720279_a_at) / Fold change /veh FAM174B (11720279_a_at) / RFU TMPRSS4 (11748680_a_at) / Fold change /veh TMPRSS4 (11748680_a_at) / RFU FAM212B (11763350_a_at) / Fold change /veh FAM212B (11763350_a_at) / RFU PLEKHG5 (11743358_a_at) / Fold change /veh PLEKHG5 (11743358_a_at) / RFU ZSCAN30 (11745921_a_at) / Fold change /veh ZSCAN30 (11745921_a_at) / RFU CMKLR1 (11741424_a_at) / Fold change /veh CMKLR1 (11741424_a_at) / RFU LOC101060620 /// MAPK8IP1 (11723275_at) / Fold change /veh LOC101060620 /// MAPK8IP1 (11723275_at) / RFU SPTSSB (11747773_x_at) / Fold change /veh SPTSSB (11747773_x_at) / RFU PRSS12 (11739890_at) / Fold change /veh PRSS12 (11739890_at) / RFU BIN1 (11741810_x_at) / Fold change /veh BIN1 (11741810_x_at) / RFU WNT11 (11732464_a_at) / Fold change /veh WNT11 (11732464_a_at) / RFU C10orf10 (11716521_a_at) / Fold change /veh C10orf10 (11716521_a_at) / RFU C5orf56 (11738089_at) / Fold change /veh C5orf56 (11738089_at) / RFU CYB561 (11721691_x_at) / Fold change /veh CYB561 (11721691_x_at) / RFU ANKRD19P (11752326_a_at) / Fold change /veh ANKRD19P (11752326_a_at) / RFU OR2T12 /// OR2T33 /// OR2T8 (11738714_s_at) / Fold change /veh OR2T12 /// OR2T33 /// OR2T8 (11738714_s_at) / RFU VCAN (11748164_a_at) / Fold change /veh VCAN (11748164_a_at) / RFU JSRP1 (11732532_at) / Fold change /veh JSRP1 (11732532_at) / RFU KRTAP10-11 (11738290_x_at) / Fold change /veh KRTAP10-11 (11738290_x_at) / RFU MYO3A (11730013_a_at) / Fold change /veh MYO3A (11730013_a_at) / RFU EBF3 (11725865_a_at) / Fold change /veh EBF3 (11725865_a_at) / RFU CAMK2N1 (11719241_x_at) / Fold change /veh CAMK2N1 (11719241_x_at) / RFU C5orf56 (11738088_a_at) / Fold change /veh C5orf56 (11738088_a_at) / RFU OLFML3 (11715873_a_at) / Fold change /veh OLFML3 (11715873_a_at) / RFU LOC100653217 /// NTM (11731650_a_at) / Fold change /veh LOC100653217 /// NTM (11731650_a_at) / RFU MAPK11 (11762145_a_at) / Fold change /veh MAPK11 (11762145_a_at) / RFU FIZ1 (11724087_x_at) / Fold change /veh FIZ1 (11724087_x_at) / RFU OASL (11726364_x_at) / Fold change /veh OASL (11726364_x_at) / RFU SOX15 (11748057_x_at) / Fold change /veh SOX15 (11748057_x_at) / RFU CD79A (11719716_a_at) / Fold change /veh CD79A (11719716_a_at) / RFU HIST1H1D (11736915_at) / Fold change /veh HIST1H1D (11736915_at) / RFU CASKIN2 (11723855_a_at) / Fold change /veh CASKIN2 (11723855_a_at) / RFU LOC730098 (11760151_x_at) / Fold change /veh LOC730098 (11760151_x_at) / RFU OR4N2 (11742367_at) / Fold change /veh OR4N2 (11742367_at) / RFU PRRT2 (11749266_a_at) / Fold change /veh PRRT2 (11749266_a_at) / RFU SNX32 (11753110_a_at) / Fold change /veh SNX32 (11753110_a_at) / RFU CDHR5 (11726645_a_at) / Fold change /veh CDHR5 (11726645_a_at) / RFU RCAN1 (11760418_a_at) / Fold change /veh RCAN1 (11760418_a_at) / RFU FAM167A (11723789_a_at) / Fold change /veh FAM167A (11723789_a_at) / RFU FAM26E (11764081_at) / Fold change /veh FAM26E (11764081_at) / RFU ISYNA1 (11749810_s_at) / Fold change /veh ISYNA1 (11749810_s_at) / RFU ACY1 (11761880_at) / Fold change /veh ACY1 (11761880_at) / RFU 11764098_at / Fold change /veh 11764098_at / RFU SAMD14 (11745864_x_at) / Fold change /veh SAMD14 (11745864_x_at) / RFU NPB (11741838_a_at) / Fold change /veh NPB (11741838_a_at) / RFU TMPRSS6 (11731388_a_at) / Fold change /veh TMPRSS6 (11731388_a_at) / RFU KRTAP10-2 (11738614_at) / Fold change /veh KRTAP10-2 (11738614_at) / RFU ARHGAP8 /// PRR5-ARHGAP8 (11727945_x_at) / Fold change /veh ARHGAP8 /// PRR5-ARHGAP8 (11727945_x_at) / RFU KRTAP5-7 /// NADSYN1 (11734609_at) / Fold change /veh KRTAP5-7 /// NADSYN1 (11734609_at) / RFU RASL12 (11751679_a_at) / Fold change /veh RASL12 (11751679_a_at) / RFU CDKN2B (11736163_a_at) / Fold change /veh CDKN2B (11736163_a_at) / RFU PRF1 (11729649_at) / Fold change /veh PRF1 (11729649_at) / RFU, ZNF638 /// ZNF638-IT1 / Fold change vs veh, ZNF638 /// ZNF638-IT1 / RFU, PANK3 / Fold change vs veh, PANK3 / RFU, SH3YL1 / Fold change vs veh, SH3YL1 / RFU, ZEB2 / Fold change vs veh, ZEB2 / RFU, NRIP1 / Fold change vs veh, NRIP1 / RFU, PTTG1IP / Fold change vs veh, PTTG1IP / RFU, CAPN2 / Fold change vs veh, CAPN2 / RFU, MED14 / Fold change vs veh, MED14 / RFU, SNORA58 / Fold change vs veh, SNORA58 / RFU, C1orf63 / Fold change vs veh, C1orf63 / RFU, LRRFIP1 / Fold change vs veh, LRRFIP1 / RFU, NDUFAF7 / Fold change vs veh, NDUFAF7 / RFU, SLC12A2 / Fold change vs veh, SLC12A2 / RFU, IBTK / Fold change vs veh, IBTK / RFU, ESF1 / Fold change vs veh, ESF1 / Fold change vs veh, TMEM50B / RFU, TAOK1 / Fold change vs veh, TAOK1 / RFU, ACBD3 / Fold change vs veh, ACBD3 / RFU, TMA16 / Fold change vs veh, TMA16 / RFU, RWDD3 / Fold change vs veh, RWDD3 / RFU, BCAT1 / Fold change vs veh, BCAT1 / RFU, EDEM3 / Fold change vs veh, EDEM3 / RFU, TMEM33 / Fold change vs veh, TMEM33 / RFU, WDR75 / Fold change vs veh, WDR75 / RFU, AHCTF1 / Fold change vs veh, AHCTF1 / RFU, TFRC / Fold change vs veh, TFRC / RFU, ZDHHC17 / Fold change vs veh, ZDHHC17 / RFU, NOM1 / Fold change vs veh, NOM1 / RFU, ARL8B / Fold change vs veh, ARL8B / RFU, ZBTB11 / Fold change vs veh, ZBTB11 / RFU, TAMM41 / Fold change vs veh, TAMM41 / RFU, KIAA1704 /// LOC100996395 / Fold change vs veh, KIAA1704 /// LOC100996395 / RFU, ING1 / Fold change vs veh, ING1 / RFU, TRMT61B / Fold change vs veh, TRMT61B / RFU, FUBP3 / Fold change vs veh, FUBP3 / RFU, TP53 / Fold change vs veh, TP53 / RFU, TNKS2 / Fold change vs veh, TNKS2 / RFU, ZFP14 / Fold change vs veh, ZFP14 / RFU, ACTR2 / Fold change vs veh, ACTR2 / RFU, PPP3R1 / Fold change vs veh, PPP3R1 / RFU, PIK3R1 / Fold change vs veh, PIK3R1 / RFU, HNRNPA1 / Fold change vs veh, HNRNPA1 / RFU, RNF170 / Fold change vs veh, RNF170 / RFU, ZNF28 / Fold change vs veh, ZNF28 / RFU, RNGTT / Fold change vs veh, RNGTT / RFU, OGT / Fold change vs veh, OGT / RFU, BRD1 / Fold change vs veh, BRD1 / RFU, MARS / Fold change vs veh, MARS / RFU, ZNF655 / Fold change vs veh, ZNF655 / RFU, FAHD1 / Fold change vs veh, FAHD1 / RFU, BDP1 / Fold change vs veh, BDP1 / RFU, LRRCC1 / Fold change vs veh, LRRCC1 / RFU, ARID1A / Fold change vs veh, ARID1A / RFU, ZNF146 / Fold change vs veh, ZNF146 / RFU, ZNF330 / Fold change vs veh, ZNF330 / RFU, GPN3 / Fold change vs veh, GPN3 / RFU, C9orf123 / Fold change vs veh, C9orf123 / RFU, N4BP2L2 / Fold change vs veh, N4BP2L2 / RFU, ARFIP1 / Fold change vs veh, ARFIP1 / RFU, FAM179B / Fold change vs veh, FAM179B / RFU, BCL10 / Fold change vs veh, BCL10 / RFU, UHRF1BP1L / Fold change vs veh, UHRF1BP1L / RFU, BET1 / Fold change vs veh, BET1 / RFU, CNOT2 / Fold change vs veh, CNOT2 / RFU, ZNF268 / Fold change vs veh, ZNF268 / Fold change vs veh, ZNF507 / RFU, DGCR2 / Fold change vs veh, DGCR2 / RFU, WDSUB1 / Fold change vs veh, WDSUB1 / Fold change vs veh, HSP90B1 /// MIR3652 / RFU, ADSS / Fold change vs veh, ADSS / RFU, GK / Fold change vs veh, GK / RFU, ZNF148 / Fold change vs veh, ZNF148 / RFU, TAF9 / Fold change vs veh, TAF9 / RFU, SLC1A5 / Fold change vs veh, SLC1A5 / RFU, SLMO2 / Fold change vs veh, SLMO2 / RFU, ABCC4 / Fold change vs veh, ABCC4 / RFU, LOC101060439 /// RAP1B / Fold change vs veh, LOC101060439 /// RAP1B / RFU, RFX7 / Fold change vs veh, RFX7 / RFU, GTPBP10 / Fold change vs veh, GTPBP10 / RFU, CNEP1R1 / Fold change vs veh, CNEP1R1 / RFU, BIVM-ERCC5 /// ERCC5 / Fold change vs veh, BIVM-ERCC5 /// ERCC5 / RFU, ILF3 / Fold change vs veh, ILF3 / RFU 11762660_at / Fold change /veh 11762660_at / RFU VCAN (11757783_s_at) / Fold change /veh VCAN (11757783_s_at) / RFU DDX43 (11728927_at) / Fold change /veh DDX43 (11728927_at) / RFU KRT8 (11758188_x_at) / Fold change /veh KRT8 (11758188_x_at) / RFU NKD1 (11759106_at) / Fold change /veh NKD1 (11759106_at) / RFU SRD5A1 (11742802_a_at) / Fold change /veh SRD5A1 (11742802_a_at) / RFU TPSAB1 /// TPSB2 (11721975_s_at) / Fold change /veh TPSAB1 /// TPSB2 (11721975_s_at) / RFU GSTM3 (11746129_a_at) / Fold change /veh GSTM3 (11746129_a_at) / RFU IL23R (11737362_x_at) / Fold change /veh IL23R (11737362_x_at) / RFU TMEM51 (11727254_a_at) / Fold change /veh TMEM51 (11727254_a_at) / RFU PIWIL2 (11732686_x_at) / Fold change /veh PIWIL2 (11732686_x_at) / RFU ORM1 (11744905_x_at) / Fold change /veh ORM1 (11744905_x_at) / RFU CCDC152 (11743942_at) / Fold change /veh CCDC152 (11743942_at) / RFU ECM1 (11717891_a_at) / Fold change /veh ECM1 (11717891_a_at) / RFU IL23R (11748794_a_at) / Fold change /veh IL23R (11748794_a_at) / RFU TNFAIP8L3 (11732012_x_at) / Fold change /veh TNFAIP8L3 (11732012_x_at) / RFU MBOAT4 (11741988_at) / Fold change /veh MBOAT4 (11741988_at) / RFU 11764193_at / Fold change /veh 11764193_at / RFU TMEM53 (11763286_at) / Fold change /veh TMEM53 (11763286_at) / RFU MAGEB2 (11727129_at) / Fold change /veh MAGEB2 (11727129_at) / RFU TMEM200A (11744735_a_at) / Fold change /veh TMEM200A (11744735_a_at) / RFU CCDC152 (11751479_a_at) / Fold change /veh CCDC152 (11751479_a_at) / RFU FAM211A (11726209_a_at) / Fold change /veh FAM211A (11726209_a_at) / RFU RGS16 (11746705_a_at) / Fold change /veh RGS16 (11746705_a_at) / RFU VCAN (11755009_s_at) / Fold change /veh VCAN (11755009_s_at) / RFU RHOB (11743442_s_at) / Fold change /veh RHOB (11743442_s_at) / RFU RGS16 (11720943_a_at) / Fold change /veh RGS16 (11720943_a_at) / RFU RGS16 (11720944_at) / Fold change /veh RGS16 (11720944_at) / RFU, VPS4B / Fold change vs veh, VPS4B / RFU, CREB1 / Fold change vs veh, CREB1 / RFU, DNAJC13 / Fold change vs veh, DNAJC13 / RFU, GNAQ / Fold change vs veh, GNAQ / RFU, CDK5R1 / Fold change vs veh, CDK5R1 / RFU, ZRANB3 / Fold change vs veh, ZRANB3 / RFU, CUL4A / Fold change vs veh, CUL4A / RFU, CCNY / Fold change vs veh, CCNY / RFU, UFL1 / Fold change vs veh, UFL1 / RFU, COG3 / Fold change vs veh, COG3 / RFU, DIAPH2 / Fold change vs veh, DIAPH2 / RFU, SKA2 / Fold change vs veh, SKA2 / RFU, AFF3 / Fold change vs veh, AFF3 / RFU, LMF1 / Fold change vs veh, LMF1 / RFU, IPO11 / Fold change vs veh, IPO11 / RFU, DFFB / Fold change vs veh, DFFB / RFU, FOXP1 / Fold change vs veh, FOXP1 / RFU, CARD8 / Fold change vs veh, CARD8 / RFU, STRN3 / Fold change vs veh, STRN3 / RFU, ADK / Fold change vs veh, ADK / RFU, RASSF2 / Fold change vs veh, RASSF2 / RFU, WIPF1 / Fold change vs veh, WIPF1 / RFU, LARP1B / Fold change vs veh, LARP1B / RFU, RASA1 / Fold change vs veh, RASA1 / RFU, RB1 / Fold change vs veh, RB1 / RFU, PPFIA1 / Fold change vs veh, PPFIA1 / RFU, MAT2A / Fold change vs veh, MAT2A / RFU, CCT5 / Fold change vs veh, CCT5 / RFU, WDR92 / Fold change vs veh, WDR92 / RFU, CUX1 / Fold change vs veh, CUX1 / RFU, TTC7A / Fold change vs veh, TTC7A / RFU, TMEM135 / Fold change vs veh, TMEM135 / RFU, DEPTOR / Fold change vs veh, DEPTOR / RFU, CPM / Fold change vs veh, CPM / RFU, DNAJB6 / Fold change vs veh, DNAJB6 / RFU, CACNA2D3 / Fold change vs veh, CACNA2D3 / RFU, DTX4 / Fold change vs veh, DTX4 / RFU, TFCP2 / Fold change vs veh, TFCP2 / RFU, GMCL1 /// GMCL1P1 / Fold change vs veh, GMCL1 /// GMCL1P1 / RFU, AEBP2 / Fold change vs veh, AEBP2 / RFU, SNHG1 /// SNORD22 /// SNORD25 /// SNORD26 /// SNORD27 /// SNORD28 /// SNORD29 /// SNORD31 / Fold change vs veh, SNHG1 /// SNORD22 /// SNORD25 /// SNORD26 /// SNORD27 /// SNORD28 /// SNORD29 /// SNORD31 / Fold change (Aza/veh), C12orf56 (ProbeSet 11735607_a_at) / Fold change (ACY-1035/veh), C12orf56 (ProbeSet 11735607_a_at) / Fold change (Aza/veh), FGFR1OP (ProbeSet 11751329_s_at) / Fold change (ACY-1035/veh), FGFR1OP (ProbeSet 11751329_s_at) / Fold change (Aza/veh), VPS36 (ProbeSet 11739960_a_at) / Fold change (ACY-1035/veh), VPS36 (ProbeSet 11739960_a_at) / RFU SYPL1 (11715823_x_at) / Fold change /veh SYPL1 (11715823_x_at) / RFU IGFBP7 (11715501_s_at) / Fold change /veh IGFBP7 (11715501_s_at) / RFU REEP3 (11722064_at) / Fold change /veh REEP3 (11722064_at) / RFU IGLL1 (11728026_x_at) / Fold change /veh IGLL1 (11728026_x_at): dose or concentration left out as unconfirmed. The note with it: ProbeSet 11717308_a_at; LIST B.

With `Nc1ccc(-c2cccs2)cc1NC(=O)c1ccc2c(c1)cc(C1CC1)n2CCN1CCOCC1` [ACY-1035], the “RFU, WDR75” value was found to be 291.65 RFU.
